The values that follow come from ChEMBL document CHEMBL5236575, “Drug Hunting at the Nexus of Medicinal Chemistry and Chemical Biology and the Discovery of Novel Therapeutic Modalities” (J Med Chem, 2022).

Some results are limits rather than exact numbers.

As a reminder, the Kd is the free concentration of one partner at which half of the binding sites on the other are occupied at equilibrium, for simple one-to-one binding. Broadly, the IC50 is the point on the concentration scale where inhibition reaches its midpoint.

Experiment [1] has as its target Survival motor neuron protein (Homo sapiens) (UniProt Q16637). Nature of the experiment: Modulation of human SMN2 level in NSC34 cells assessed as fold change by ELISA. Format: cell-based. A general note: An ELISA detects its analyte on a solid surface through an enzyme-linked reagent.
For experiment [2], the target named is T1, von Hippel-Lindau disease tumor suppressor (Homo sapiens, UniProt P40337). Nature of the experiment: Binding affinity to VHL E3 ligase (unknown origin) assessed as dissociation constant by isothermal titration calorimetry assay. Background: ITC needs no label: the signal is the heat of the interaction.
Experiment [3] addresses T1, von Hippel-Lindau disease tumor suppressor. Nature of the experiment: Binding affinity to VHL E3 ligase (unknown origin) by fluorescence polarization (FP) assay.

Sequence of Survival motor neuron protein (Homo sapiens) (Q16637 whole entry): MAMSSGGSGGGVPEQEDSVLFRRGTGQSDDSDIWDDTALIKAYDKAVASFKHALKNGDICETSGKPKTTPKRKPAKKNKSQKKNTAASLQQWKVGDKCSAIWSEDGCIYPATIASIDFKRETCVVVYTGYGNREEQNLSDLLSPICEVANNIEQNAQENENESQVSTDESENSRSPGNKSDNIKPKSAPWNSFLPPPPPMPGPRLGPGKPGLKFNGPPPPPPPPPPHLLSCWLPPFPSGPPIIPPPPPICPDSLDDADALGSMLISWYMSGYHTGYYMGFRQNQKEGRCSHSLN
T1 sequence (P40337 whole entry): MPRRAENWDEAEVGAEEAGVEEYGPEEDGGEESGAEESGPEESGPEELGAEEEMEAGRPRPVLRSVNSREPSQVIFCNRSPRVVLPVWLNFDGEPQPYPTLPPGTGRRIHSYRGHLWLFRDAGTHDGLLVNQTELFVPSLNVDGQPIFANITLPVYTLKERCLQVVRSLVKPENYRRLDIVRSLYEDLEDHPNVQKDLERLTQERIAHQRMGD

On to `CCc1nc(C)cn2nc(-c3cc(=O)n4cc(N5CCN(CC)CC5)ccc4n3)cc12`, for which the EC1.5 in experiment [1] (NSC-34, filed as modulator) turned out to be 23 nM.
Consider `C=C(CCNC(=O)CCCC)N1CCN(c2ccc3nc(-c4cc(F)c5nc(C)cn5c4)cc(=O)n3c2)CC1`, for which the EC1.5 in experiment [1] (NSC-34, filed as modulator) was found to be 43 nM.
For `CC1(C)CC(Oc2ccc(-c3ccc(-n4cccn4)cc3O)nn2)CC(C)(C)N1`, in experiment [1] (NSC-34, filed as modulator), the fold change (FC) turned out to be 3.3.
On to `CCCCC(=O)NCCC(=O)N1CCN(c2ccc3nc(-c4cc(F)c5nc(C)cn5c4)cc(=O)n3c2)CC1`, for which the EC1.5 in experiment [1] (NSC-34) is above 1000 nM.
On to `CCN1CCN(c2ccc3nc(-c4cc5c(C)nc(C)cn5n4)cc(=O)n3c2)CC1`, for which the EC1.5 in experiment [1] (NSC-34, filed as modulator) was 30 nM.
On to `Cc1cn2nc(-c3cc(=O)n4cc(N5CCNC6(CC6)C5)ccc4n3)cc(C)c2n1`, for which, in experiment [1] (NSC-34, filed as modulator), the EC1.5 was 4 nM.
In the case of `COC(=O)c1ccc(CNC(=O)[C@@H]2C[C@@H](O)CN2C(=O)CC(C)(C)C)cc1`, the Kd in experiment [2] was determined as 45.5 µM. The compound also came in with an IC50 in experiment [3] of 53.2 µM.
For `CN(c1ccc(-c2ccc(-c3cn[nH]c3)cc2O)nn1)C1CC(C)(C)NC(C)(C)C1`, in experiment [1] (NSC-34, filed as modulator), the fold change (FC) was found to be 3.1.
Same read-out and setting: in the case of `CC1(C)CC(Oc2ccc(-c3ccc(-c4cn[nH]c4)cc3O)nn2)CC(C)(C)N1` it was 3.6; in that of `Oc1cc(-n2cccn2)ccc1-c1ccc(OC2CCNCC2(F)F)nn1` (centres undefined), 1.2; in that of `CN(c1ccc(-c2ccc(-n3cccn3)cc2O)nn1)C1CC(C)(C)NC(C)(C)C1`, 3.1.
Turning to `Cc1cn2cc(-c3cc(=O)n4cc(N5CCN(C)CC5)ccc4n3)cc(F)c2n1`, the EC1.5 in experiment [1] (NSC-34, filed as modulator) came to 15 nM.
Same read-out and setting: the figure for `Cc1cn2nc(-c3cc(=O)n4cc(N5CCN(C)CC5)ccc4n3)cc2c(C)n1` is 170 nM.
